US20230416248A1, “COMPOUNDS AND USES THEREOF” (Foghorn Therapeutics Inc., priority 2020, published 2023)
Like-named read-outs stand apart in the source and are kept apart here.

Columns and labels:
BRM = biological target: T1, BRM (Homo sapiens, UniProt P51531); experiment: ATPase catalytic activity of BRM, ADP-Glo in vitro biochemical assay; conditions: for IC50: 30 nM BRM, 400 μM ATP; for Ratio* (BRG1 IC50 (μM) divided by BRM IC50 (μM)): selectivity ratio BRG1 IC50 / BRM IC50
T1 construct: made in house; host or cells: High Five insect cells
T1 sequence (P51531 whole entry): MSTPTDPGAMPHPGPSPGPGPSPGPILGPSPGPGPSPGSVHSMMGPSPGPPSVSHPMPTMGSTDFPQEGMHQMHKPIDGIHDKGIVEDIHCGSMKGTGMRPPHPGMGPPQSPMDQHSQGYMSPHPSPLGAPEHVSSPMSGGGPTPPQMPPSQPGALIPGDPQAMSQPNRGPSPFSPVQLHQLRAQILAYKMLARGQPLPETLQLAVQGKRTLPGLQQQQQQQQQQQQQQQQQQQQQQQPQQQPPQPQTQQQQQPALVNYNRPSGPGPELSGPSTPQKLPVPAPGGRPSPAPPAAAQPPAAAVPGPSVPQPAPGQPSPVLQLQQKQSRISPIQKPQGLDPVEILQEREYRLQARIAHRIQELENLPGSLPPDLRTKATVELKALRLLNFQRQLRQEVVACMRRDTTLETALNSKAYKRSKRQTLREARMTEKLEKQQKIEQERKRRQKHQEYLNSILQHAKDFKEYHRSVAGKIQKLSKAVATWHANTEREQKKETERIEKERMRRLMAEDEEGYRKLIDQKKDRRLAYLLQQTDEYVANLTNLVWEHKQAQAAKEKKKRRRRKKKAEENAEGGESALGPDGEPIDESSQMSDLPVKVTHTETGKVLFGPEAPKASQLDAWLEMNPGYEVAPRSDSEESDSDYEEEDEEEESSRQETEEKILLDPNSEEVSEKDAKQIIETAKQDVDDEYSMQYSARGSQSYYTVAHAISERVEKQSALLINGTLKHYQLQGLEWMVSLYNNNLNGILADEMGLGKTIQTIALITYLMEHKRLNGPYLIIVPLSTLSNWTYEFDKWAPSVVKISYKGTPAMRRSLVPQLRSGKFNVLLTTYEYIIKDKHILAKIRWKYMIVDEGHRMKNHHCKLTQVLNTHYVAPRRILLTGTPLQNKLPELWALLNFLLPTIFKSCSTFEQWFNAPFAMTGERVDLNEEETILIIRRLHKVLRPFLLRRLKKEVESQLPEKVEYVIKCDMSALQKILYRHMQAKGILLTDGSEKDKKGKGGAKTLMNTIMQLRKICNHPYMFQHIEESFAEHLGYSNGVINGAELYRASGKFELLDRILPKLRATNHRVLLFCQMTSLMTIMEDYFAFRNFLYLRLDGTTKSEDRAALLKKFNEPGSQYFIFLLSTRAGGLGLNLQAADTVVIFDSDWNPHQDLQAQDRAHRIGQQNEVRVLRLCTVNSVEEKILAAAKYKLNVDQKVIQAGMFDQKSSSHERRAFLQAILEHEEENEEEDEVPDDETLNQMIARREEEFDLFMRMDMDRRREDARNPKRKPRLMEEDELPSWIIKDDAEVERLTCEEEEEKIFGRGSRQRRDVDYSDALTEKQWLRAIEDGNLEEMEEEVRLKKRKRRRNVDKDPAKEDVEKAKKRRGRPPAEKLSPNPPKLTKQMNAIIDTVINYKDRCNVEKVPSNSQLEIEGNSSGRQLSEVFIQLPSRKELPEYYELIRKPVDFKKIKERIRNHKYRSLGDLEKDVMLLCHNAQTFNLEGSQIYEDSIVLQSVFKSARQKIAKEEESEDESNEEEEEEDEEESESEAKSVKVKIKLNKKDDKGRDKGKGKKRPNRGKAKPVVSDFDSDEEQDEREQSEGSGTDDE
Summary of the method: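 Recombinant BRM (30 nM) hydrolysed 400 μM ATP with 20 nM salmon sperm DNA in pH 8 Tris buffer containing 20 mM MgCl2, 50 mM NaCl, 0.1% Tween-20 and 1 mM DTT, 1 h at room temperature. ADP formed was quantified by ADP-Glo luminescence.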

BRG-1 = biological target: T2, BRG-1 (Homo sapiens, UniProt P51532); experiment: ATPase catalytic activity of BRG-1, ADP-Glo in vitro biochemical assay; conditions: 30 nM BRG-1, 400 μM ATP, read-out: BRG1 IC50
T2 construct: made in house; host or cells: High Five insect cells
T2 sequence (P51532 whole entry): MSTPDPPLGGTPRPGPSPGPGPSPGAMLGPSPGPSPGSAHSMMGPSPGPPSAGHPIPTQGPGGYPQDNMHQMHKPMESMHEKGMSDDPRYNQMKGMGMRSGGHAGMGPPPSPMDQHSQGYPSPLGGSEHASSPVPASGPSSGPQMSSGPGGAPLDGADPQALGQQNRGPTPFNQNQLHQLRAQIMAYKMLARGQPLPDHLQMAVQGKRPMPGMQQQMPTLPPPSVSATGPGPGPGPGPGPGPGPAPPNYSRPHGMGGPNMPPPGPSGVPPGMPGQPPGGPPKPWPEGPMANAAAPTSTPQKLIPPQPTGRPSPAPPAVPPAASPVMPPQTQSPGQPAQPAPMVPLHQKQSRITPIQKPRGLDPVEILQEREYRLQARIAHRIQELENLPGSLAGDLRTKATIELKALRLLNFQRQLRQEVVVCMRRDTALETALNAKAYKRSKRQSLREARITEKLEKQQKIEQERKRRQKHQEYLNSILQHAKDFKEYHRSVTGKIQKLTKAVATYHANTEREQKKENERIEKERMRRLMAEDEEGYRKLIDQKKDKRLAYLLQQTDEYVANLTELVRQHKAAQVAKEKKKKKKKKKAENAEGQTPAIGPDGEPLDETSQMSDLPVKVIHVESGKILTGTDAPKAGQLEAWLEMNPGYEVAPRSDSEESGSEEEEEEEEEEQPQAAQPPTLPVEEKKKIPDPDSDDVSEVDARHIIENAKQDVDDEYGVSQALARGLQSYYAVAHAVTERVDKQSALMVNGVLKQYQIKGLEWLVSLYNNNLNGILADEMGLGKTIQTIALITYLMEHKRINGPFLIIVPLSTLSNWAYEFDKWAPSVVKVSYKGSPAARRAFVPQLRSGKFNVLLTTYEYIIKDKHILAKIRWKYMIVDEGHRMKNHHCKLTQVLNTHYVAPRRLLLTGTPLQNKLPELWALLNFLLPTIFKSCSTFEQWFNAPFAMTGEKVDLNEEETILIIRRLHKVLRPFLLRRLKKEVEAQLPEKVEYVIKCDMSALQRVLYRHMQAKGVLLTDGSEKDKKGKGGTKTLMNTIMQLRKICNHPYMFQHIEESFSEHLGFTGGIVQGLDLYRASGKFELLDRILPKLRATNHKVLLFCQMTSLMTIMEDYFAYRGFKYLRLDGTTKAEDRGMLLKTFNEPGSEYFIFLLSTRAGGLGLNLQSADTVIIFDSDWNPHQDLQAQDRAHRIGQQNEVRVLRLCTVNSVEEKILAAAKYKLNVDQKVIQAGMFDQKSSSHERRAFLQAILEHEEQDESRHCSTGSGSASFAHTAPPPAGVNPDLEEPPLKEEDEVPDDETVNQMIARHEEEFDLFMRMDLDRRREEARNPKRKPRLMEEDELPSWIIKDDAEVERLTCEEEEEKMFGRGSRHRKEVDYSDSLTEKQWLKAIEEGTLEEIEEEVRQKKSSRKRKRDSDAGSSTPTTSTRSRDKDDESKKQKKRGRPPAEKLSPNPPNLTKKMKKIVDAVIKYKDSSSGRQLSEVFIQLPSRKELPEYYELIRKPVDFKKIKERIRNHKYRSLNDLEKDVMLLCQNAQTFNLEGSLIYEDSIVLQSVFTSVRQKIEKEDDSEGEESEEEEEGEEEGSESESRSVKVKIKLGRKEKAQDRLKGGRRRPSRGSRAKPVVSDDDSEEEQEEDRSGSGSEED
Summary of the method: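 Signal reflects ADP produced by the enzyme, quantified as luminescence after unused ATP is cleared and ADP is reconverted to ATP for the luciferase reaction; both steps run at room temperature, 40 and 60 min respectively.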

[1] = ATPase catalytic activity, ADP-Glo

Row | Structure (SMILES) | IC50 (BRM; [1]) [nM] | Ratio* (BRM; ratio of BRG1 IC50 to BRM IC50) | IC50 (BRG-1; [1]) [nM] | IC50 (BRM; ADP-Glo ATPase assay) [nM] | Ratio* (BRM; ratio BRG1 IC50 / BRM IC50) | IC50 (BRG-1; ADP-Glo ATPase assay) [nM] | Ratio* (BRG1 IC50 (μM) divided by BRM IC50 (μM)) (BRM)
1 | COCCN(C)c1cccc(-c2ccc3cnc(CNC(=O)c4ccc5c(c4)S(=O)(=O)CCOC5)cc3n2)c1OC [Compound 347] | 1230 | 3.03 | 3730 |  |  |  | 
2 | COCCOc1cc(C(F)F)ccc1-c1ccc2cnc(CNC(=O)c3ccc4c(c3)S(=O)(=O)CCOC4)cc2n1 [Compound 366] | 324 | 9.14 | 2960 |  |  |  | 
3 | Cc1cc(C(=O)NCc2cc3nc(-c4cccc(N5C[C@@H](C)O[C@@H](C)C5)n4)ccc3cn2)cc2c1OCC[C@H](C)S2(=O)=O [Compound 456] | 18.5 | 21.49 | 398 |  |  |  | 
4 | COc1nn(C2COC2)cc1-c1ccc2cnc(CNC(=O)c3ccc4c(c3)S(=O)(=O)CCOC4)cc2c1 [Compound 261] |  |  |  | 16.5 |  | 233 | 14.10
5 | CN(c1ccccn1)c1ccc2cnc(CNC(=O)c3ccc4c(c3)S(=O)(=O)CCOC4)cc2n1 [Compound 108] |  |  |  | 672 |  | 5000 | 7.43
6 | CO[C@H]1C[C@H](N(C)c2cccc(-c3ccc4cnc(CNC(=O)c5ccc6c(c5)S(=O)(=O)CCOC6)cc4n3)n2)C1 [Compound 42] |  |  |  | 17.3 |  | 127 | 7.37
7 | COc1nn([C@H]2C[C@H](F)C2)cc1-c1ccc2cnc(CNC(=O)c3ccc4c(c3)S(=O)(=O)CCOC4)cc2c1 [Compound 149] |  |  |  | 36.6 |  | 810 | 22.13
8 | CO[C@H]1C[C@H]1N(C)c1cccc(-c2ccc3cnc(CNC(=O)c4ccc5c(c4)S(=O)(=O)CCOC5)cc3n2)n1 [Compound 534] | 6.1 | 12.41 | 76.3 |  |  |  | 
9 | Cc1ncc(C(=O)NCc2cc3nc(-c4cncc(C5CC5)n4)ccc3cn2)cc1S(C)(=O)=O [Compound 298] |  |  |  | 221 |  | 2190 | 9.90
10 | C[C@@H]1CN(c2cccc(-c3ccc4cnc(CNC(=O)c5cc(Cl)c6c(c5)S(=O)(=O)CCO[C@@H]6C)cc4n3)n2)C[C@H](C)O1 [Compound 553] | 20.4 | 22.48 | 458 |  |  |  | 
11 | Cc1cc(C(=O)NCc2cc3nc(-c4cccc(N5C[C@@H](C)O[C@@H](C)C5)n4)ccc3cn2)cc2c1O[C@@H](C)CCS2(=O)=O [Compound 544] | 41.8 | 24.42 | 1020 |  |  |  | 
12 | C[C@@H]1CN(c2cccc(-c3cnc4cnc(CNC(=O)c5ccc6c(c5)S(=O)(=O)CCOC6)cc4n3)c2)C[C@H](C)O1 [Compound 141] |  |  |  | 13 |  | 169 | 12.97
13 | COC[C@H]1C[C@@H]1c1cccc(-c2ccc3cnc(CNC(=O)c4ccc5c(c4)S(=O)(=O)CCOC5)cc3n2)n1 [Compound 369] | 36.1 | 11.52 | 416 |  |  |  | 
14 | C[C@@H]1CN(c2nc(-c3ccc4cnc(CNC(=O)c5ccc6c(c5)S(=O)(=O)CCOC6)cc4n3)ccc2F)C[C@H](C)O1 [Compound 111] |  |  |  | 6 |  | 27.4 | 4.58
15 | C[C@@H]1CN(c2cccc(-c3ccc4cnc(CNC(=O)c5ccc(C(F)F)c(S(C)(=O)=O)c5)cc4n3)n2)C[C@@H](C)O1 [Compound 158] |  |  |  | 13.1 |  | 262 | 20.03
16 | O=C(NCc1cc2nc(-c3cccc(OCC(F)F)c3)ccc2cn1)c1ccc2c(c1)S(=O)(=O)CCOC2 [Compound 103] |  |  |  | 252 |  | 2770 | 10.96
17 | O=C(NCc1cc2nc(-c3cccc(N4CC[C@@H](F)C4)n3)ccc2cn1)c1ccc2c(c1)S(=O)(=O)CCOC2 [Compound 222] |  |  |  | 12.9 |  | 136 | 10.58
18 | COc1nc(C)ccc1-c1ccc2cnc(CNC(=O)c3ccc4c(c3)S(=O)(=O)[C@@H](C)COC4)cc2n1 [Compound 411] | 14.6 | 18.90 | 275 |  |  |  | 
19 | CC1Cc2ccc(C(=O)NCc3cc4nc(-c5cccc(N6C[C@@H](C)O[C@@H](C)C6)n5)ccc4cn3)cc2S1(=O)=O (stereo partly drawn) [Compound 364] | 19 | 12.21 | 231 |  |  |  | 
20 | C[C@H]1COCc2ccc(C(=O)NCc3cc4nc(-c5ccnc([C@@H]6CC6(F)F)n5)ccc4cn3)cc2S1(=O)=O [Compound 465] | 102 | 15.25 | 1560 |  |  |  | 
21 | CS(=O)(=O)c1cc(C(=O)NCc2cc3nc(-c4cccc(N5CC[C@H]6OCC[C@@H]6C5)n4)ccc3cn2)ccc1C(F)F [Compound 124] |  |  |  | 37.8 |  | 541 | 14.29
22 | CO[C@@H](C)c1cccc(-c2ccc3cnc(CNC(=O)c4ccc5c(c4)S(=O)(=O)CCOC5)cc3n2)n1 [Compound 69] |  |  |  | 262 |  | 2470 | 9.44
23 | O=C(NCc1cc2cc(-c3cncc(C4CC4)n3)ccc2cn1)c1ccc2c(c1)S(=O)(=O)CCOC2 [Compound 263] |  |  |  | 23.3 |  | 348 | 14.94
24 | CS(=O)(=O)c1cc(C(=O)NCc2cc3nc(-c4cccc(N5CC[C@@H]6OCC[C@H]6C5)n4)ccc3cn2)ccc1Cl [Compound 99] |  |  |  | 78.7 |  | 884 | 11.24
25 | O=C(NCc1cc2nc(N3CCCc4cc(C(F)F)cnc43)ccc2cn1)c1ccc2c(c1)S(=O)(=O)CCOC2 [Compound 473] | 10.9 | 13.46 | 147 |  |  |  | 
26 | COC[C@H](NC(=O)c1ccc2c(c1)S(=O)(=O)CCOC2)c1cc2nc(-c3cccc(C4CC4)n3)ccc2cn1 [Compound 507] | 387 | 6.28 | 2430 |  |  |  | 
27 | O=C(NCc1cc2cc(-c3cccc(N4CCC4)n3)ccc2cn1)c1cnc2c(c1)S(=O)(=O)CCOC2 [Compound 256] |  |  |  | 49 |  | 426 | 8.69
28 | CC(C)c1cccc(-c2ccc3cnc(CNC(=O)c4ccc5c(c4)S(=O)(=O)CCOC5)cc3n2)n1 [Compound 289] |  |  |  | 59.8 |  | 958 | 16.01
29 | O=C(NCc1cc2nc(-c3cccc(C4=CCOCC4)n3)ccc2cn1)c1ccc2c(c1)S(=O)(=O)CCOC2 [Compound 183] |  |  |  | 8.9 |  | 101 | 11.33

Next, values leading:

Row | IC50 (BRM; [1]) [nM] | Ratio* (BRM; ratio of BRG1 IC50 to BRM IC50) | IC50 (BRG-1; [1]) [nM] | IC50 (BRM; ADP-Glo ATPase assay) [nM] | Ratio* (BRM; ratio BRG1 IC50 / BRM IC50) | IC50 (BRG-1; ADP-Glo ATPase assay) [nM] | Ratio* (BRG1 IC50 (μM) divided by BRM IC50 (μM)) (BRM) | Structure (SMILES)
30 |  |  |  | 45.1 | 52.48 | 2370 |  | O=C(NCc1cc2nc(N3CCOc4ccc(C5CC(F)(F)C5)nc43)ccc2cn1)c1ccc2c(c1)S(=O)(=O)CCOC2 [Compound 828]
31 | 36.7 | 4.71 | 173 |  |  |  |  | C[C@H]1Cc2ccc(-c3ccc4cnc(CNC(=O)c5ccc6c(c5)S(=O)(=O)CCOC6)cc4n3)nc2N(C)C1 [Compound 662]
32 | 22.4 | 7.93 | 177 |  |  |  |  | COCc1cc2c(nc1C)N(c1ccc3cnc(CNC(=O)c4ccc5c(c4)S(=O)(=O)CCOC5)cc3n1)CCC2 [Compound 590]
33 | 58.8 | 12.54 | 737 |  |  |  |  | COCc1nc2c(cc1Cl)CCCN2c1ccc2cnc(CNC(=O)c3ccc4c(c3)S(=O)(=O)CCOC4)cc2n1 [Compound 599]
34 |  |  |  | 21.4 | 10.40 | 222 |  | O=C(NCc1cc2nc(N3CCCc4c(N5CCC5)ccnc43)ccc2cn1)c1ccc2c(c1)S(=O)(=O)CCOC2 [Compound 814]
35 |  |  |  | 1730 | 2.75 | 4770 |  | COCC1CN(c2ccc3cnc(CNC(=O)c4ccc5c(c4)S(=O)(=O)CCOC5)cc3n2)c2ccccc2O1 (stereo not drawn) [Compound 716]
36 |  |  |  | 9.3 | 9.97 | 92.5 |  | COc1cc(C)nc2c1CCCN2c1ccc2cnc(CNC(=O)c3ccc4c(c3)S(=O)(=O)CCOC4)cc2n1 [Compound 732]
37 | 5.5 | 14.77 | 81.9 |  |  |  |  | COCCOc1ccc2c(c1)N(c1ccc3cnc(CNC(=O)c4ccc5c(c4)S(=O)(=O)CCOC5)cc3n1)CCC2 [Compound 586]
38 | 7.2 | 8.17 | 59 |  |  |  |  | COCc1cc2c(nc1Cl)N(c1ccc3cnc(CNC(=O)c4ccc5c(c4)S(=O)(=O)CCOC5)cc3n1)CCC2 [Compound 660]
39 |  |  |  | 1140 | 3.42 | 3900 |  | O=C(NCc1cc2nc(N3CCCc4cccc(Cl)c43)ccc2cn1)c1ccc2c(c1)S(=O)(=O)CCOC2 [Compound 736]
40 |  |  |  | 7.1 | 17.47 | 124 |  | O=C(NCc1cc2nc(N3CCOc4cnc(C5CC5)cc43)ccc2cn1)c1ccc2c(c1)S(=O)(=O)CCOC2 [Compound 755]
41 |  |  |  | 4.3 | 13.63 | 58.1 |  | CO[C@H](C)COc1ccc2c(c1)N(c1ccc3cnc(CNC(=O)c4ccc5c(c4)S(=O)(=O)CCOC5)cc3n1)CCC2 [Compound 705]
42 | 39 | 13.24 | 517 |  |  |  |  | C[C@@H]1CN(c2cccc(-c3ccc4cnc(CNC(=O)c5ccc6c(c5)S(=O)(=O)[C@@H](C)CN6C5CC5)cc4n3)n2)C[C@H](C)O1 [Compound 667]
43 |  |  |  | 22.2 | 25.51 | 567 |  | O=C(NCc1cc2nc(N3CCCc4ccc(OC5CC5)nc43)ccc2cn1)c1ccc2c(c1)S(=O)(=O)CCOC2 [Compound 746]
